Test results as given in the supplement of paper PMC13380429.

Key:
Settings in all cases: 72 h
Caco-2 [1] = assay: cell viability relative to DMSO; higher = less toxic
Calu-3 [2] = assay: as above
HepG2 [3] = assay: as above
U2OS [4] = assay: as above
Vero E6 [5] = assay: as above
Caco-2 [6] = assay: relative viability EC50 (midpoint between 100% and the lowest measured viability); higher = less toxic
Calu-3 [7] = assay: as above
HepG2 [8] = assay: as above
U2OS [9] = assay: as above
Vero E6 [10] = assay: as above
Caco-2 [11] = assay: drug sensitivity score (DSS) for viability; higher = more toxic; extreme values may be limits of the assay
Calu-3 [12] = assay: as above
HepG2 [13] = assay: as above
U2OS [14] = assay: as above
Vero E6 [15] = assay: as above

| Structure (SMILES) | cell viability (Caco-2 [1]; 1 nM) [%] | cell viability (Caco-2 [1]; 10 nM) [%] | cell viability (Caco-2 [1]; 100 nM) [%] | cell viability (Caco-2 [1]; 1000 nM) [%] | cell viability (Caco-2 [1]; 10000 nM) [%] | cell viability (Calu-3 [2]; 1 nM) [%] | cell viability (Calu-3 [2]; 10 nM) [%] | cell viability (Calu-3 [2]; 100 nM) [%] | cell viability (Calu-3 [2]; 1000 nM) [%] | cell viability (Calu-3 [2]; 10000 nM) [%] | cell viability (HepG2 [3]; 1 nM) [%] | cell viability (HepG2 [3]; 10 nM) [%] | cell viability (HepG2 [3]; 100 nM) [%] | cell viability (HepG2 [3]; 1000 nM) [%] | cell viability (HepG2 [3]; 10000 nM) [%] | cell viability (U2OS [4]; 1 nM) [%] | cell viability (U2OS [4]; 10 nM) [%] | cell viability (U2OS [4]; 100 nM) [%] | cell viability (U2OS [4]; 1000 nM) [%] | cell viability (U2OS [4]; 10000 nM) [%] | cell viability (Vero E6 [5]; 1 nM) [%] | cell viability (Vero E6 [5]; 10 nM) [%] | cell viability (Vero E6 [5]; 100 nM) [%] | cell viability (Vero E6 [5]; 1000 nM) [%] | cell viability (Vero E6 [5]; 10000 nM) [%] | relative viability EC50 (Caco-2 [6]) [µM] | relative viability EC50 (Calu-3 [7]) [µM] | relative viability EC50 (HepG2 [8]) [µM] | relative viability EC50 (U2OS [9]) [µM] | relative viability EC50 (Vero E6 [10]) [µM] | drug sensitivity score (Caco-2 [11]) | drug sensitivity score (Calu-3 [12]) | drug sensitivity score (HepG2 [13]) | drug sensitivity score (U2OS [14]) | drug sensitivity score (Vero E6 [15]) |
| --- | --- | --- | --- | --- | --- | --- | --- | --- | --- | --- | --- | --- | --- | --- | --- | --- | --- | --- | --- | --- | --- | --- | --- | --- | --- | --- | --- | --- | --- | --- | --- | --- | --- | --- | --- |
| CC[C@H](CO)Nc1nc(NCc2ccc(-c3ccccn3)cc2)c2ncn(C(C)C)c2n1 [CR8-(R)] | 101 | 97.1 | 86.5 | 34.5 | 34.1 | 104 | 80 | 87 | 31.3 | 39.9 | 88.7 | 102 | 17.2 | 0.7 | 8.8 | 100 | 93.3 | 99.8 | 0.2 | 4.8 | 90.2 | 99.3 | 85.8 | 2.9 | 9.3 | 0.172 | 0.184 | 0.0531 | 0.315 | 0.201 | 14.3 | 14.6 | 27.5 | 17.9 | 19.9 |
| CNc1ccc([N+](=O)[O-])cc1-n1cnc(-c2ccc(C(F)(F)F)cc2)c1 [CU-T12-9] | 95.4 | 105 | 96.8 | 101 | 101 | 104 | 90.9 | 93.8 | 94.9 | 94.9 | 108 | 104 | 93.8 | 95.4 | 91.3 | 103 | 103 | 96.2 | 98.2 | 100 | 103 | 96.4 | 100 | 101 | 102 | > 10 | > 10 | > 10 | > 10 | > 10 | 0 | 0 | 0 | 0 | 0 |
| CC(=O)N[C@@H](CSSC[C@H](NC(C)=O)C(=O)O)C(=O)O [D-7193] | 100 | 96.1 | 104 | 92 | 100 | 93.5 | 83.4 | 103 | 95.6 | 110 | 108 | 88.5 | 108 | 98.9 | 98 | 95.1 | 96.2 | 98.6 | 98.2 | 101 | 107 | 106 | 100 | 103 | 99.2 | > 10 | > 10 | > 10 | > 10 | > 10 | 0 | 0 | 0 | 0 | 0 |
